The results in this text go back to PubChem BioAssay AID1745844 (Carcinogenic Potency Database (CPDB), 2022).

SMILES strings stand for the structures. “And” between values parts separate entries of the source, which are not always exact repeats. Identical values can stand only once. The source made the active and inactive calls. How the calls were made is not given here.

For this data set, the system named is rodent lifetime carcinogenesis bioassay, tumor incidence TD50. Briefly: chronic cancer bioassays in animals – CPDB, compiled studies (AID 1745844).
Setting [1] is: mouse, strain B6C3F1, females, in feed, site: liver, lesion: hepatocellular carcinoma, dosed 91 weeks, study length 91 weeks.
Setting [2] is: mouse, strain B6C3F1, females, in feed, site: liver, lesion: several types, types named in the paper, dosed 91 weeks, study length 91 weeks.
Setting [3] is: mouse, strain B6C3F1, females, in feed, site: liver, lesion: several types, types named in the paper, dosed 100 weeks, study length 100 weeks.

What is called TD50 is the 50% point of the dose-response relation for the toxic effect studied. On to `Nc1cc([N+](=O)[O-])ccc1C(=O)O`, for which the carcinogen call (mouse, strain B6C3F1, females, in feed, site: any site (literature study), lesion: several types, types named in the paper, dosed 78 weeks, study length 93 weeks) is “negative (inactive)”; the carcinogen call (rat, strain Fischer 344, females, in feed, site: any site (literature study), lesion: several types, types named in the paper, dosed 78 weeks, study length 105 weeks) was “negative (inactive)”; the carcinogen call (rat, strain Fischer 344, males, in feed, site: any site (literature study), lesion: several types, types named in the paper, dosed 78 weeks, study length 105 weeks) is “negative (inactive)”. The TD50 is 2560 mg/kg/day (mouse, strain B6C3F1, females, in feed, site: lung, lesion: alveolar/bronchiolar adenoma + alveolar/bronchiolar carcinoma, dosed 78 weeks, study length 93 weeks); 12600 mg/kg/day (inactive) (mouse, strain B6C3F1, males, in feed, site: all sites, lesion: hemangioma + hemangiosarcoma, dosed 78 weeks, study length 93 weeks); 1660 mg/kg/day (mouse, strain B6C3F1, males, in feed, site: any site (literature study), lesion: several types, types named in the paper, dosed 78 weeks, study length 93 weeks); 11800 mg/kg/day (rat, strain Fischer 344, females, in feed, site: liver, lesion: hepatocellular adenoma + hepatocellular carcinoma + neoplastic nodule, dosed 78 weeks, study length 105 weeks); 3710 mg/kg/day (rat, strain Fischer 344, males, in feed, site: liver, lesion: hepatocellular adenoma + hepatocellular carcinoma + neoplastic nodule, dosed 78 weeks, study length 105 weeks).
With `ClCC(Cl)Cl`, the TD50 is 47.6 mg/kg/day (mouse, strain B6C3F1, females, by gavage, site: adrenal gland + liver, lesion: pheochromocytoma + hepatocellular carcinoma, dosed 78 weeks, study length 90 weeks); 248 mg/kg/day (mouse, strain B6C3F1, females, by gavage, site: adrenal gland, lesion: pheochromocytoma, dosed 78 weeks, study length 90 weeks); 52.9 mg/kg/day (mouse, strain B6C3F1, females, by gavage, site: any site (literature study), lesion: several types, types named in the paper, dosed 78 weeks, study length 90 weeks); 47.6 mg/kg/day (mouse, strain B6C3F1, females, by gavage, site: liver, lesion: hepatocellular adenoma + hepatocellular carcinoma + neoplastic nodule, dosed 78 weeks, study length 90 weeks); 47.6 mg/kg/day (mouse, strain B6C3F1, females, by gavage, site: liver, lesion: hepatocellular carcinoma, dosed 78 weeks, study length 90 weeks); 787 mg/kg/day (mouse, strain B6C3F1, females, by gavage, site: lung, lesion: alveolar/bronchiolar adenoma + alveolar/bronchiolar carcinoma, dosed 78 weeks, study length 90 weeks). Also, the TD50 was 65 mg/kg/day (mouse, strain B6C3F1, males, by gavage, site: adrenal gland + liver, lesion: pheochromocytoma + hepatocellular carcinoma, dosed 78 weeks, study length 90 weeks); 588 mg/kg/day (mouse, strain B6C3F1, males, by gavage, site: adrenal gland, lesion: pheochromocytoma, dosed 78 weeks, study length 90 weeks); 79.5 mg/kg/day (mouse, strain B6C3F1, males, by gavage, site: any site (literature study), lesion: several types, types named in the paper, dosed 78 weeks, study length 90 weeks); 65 mg/kg/day (mouse, strain B6C3F1, males, by gavage, site: liver, lesion: hepatocellular adenoma + hepatocellular carcinoma + neoplastic nodule, dosed 78 weeks, study length 90 weeks); 65 mg/kg/day (mouse, strain B6C3F1, males, by gavage, site: liver, lesion: hepatocellular carcinoma, dosed 78 weeks, study length 90 weeks); 1560 mg/kg/day (mouse, strain B6C3F1, males, by gavage, site: lung, lesion: alveolar/bronchiolar adenoma + alveolar/bronchiolar carcinoma, dosed 78 weeks, study length 90 weeks). In addition, the TD50 (rat, strain Osborne-Mendel, females, by gavage, site: liver, lesion: hepatocellular adenoma + hepatocellular carcinoma + neoplastic nodule, dosed 78 weeks, study length 112 weeks) turned out to be 771 mg/kg/day. The carcinogen call (rat, strain Osborne-Mendel, females, by gavage, site: any site (literature study), lesion: several types, types named in the paper, dosed 78 weeks, study length 112 weeks) was “negative (inactive)” and the carcinogen call (rat, strain Osborne-Mendel, males, by gavage, site: any site (literature study), lesion: several types, types named in the paper, dosed 78 weeks, study length 112 weeks) is “negative (inactive)”.
As to `O=Nc1ccc(NO)cc1`, the TD50 reads like this: (mouse, strain B6C3F1, females, in feed, site: any site (literature study), lesion: several types, types named in the paper, dosed 104 weeks, study length 105 weeks) 6710 mg/kg/day (inactive); (mouse, strain B6C3F1, females, in feed, site: liver, lesion: hepatocellular adenoma + hepatocellular carcinoma + neoplastic nodule, dosed 104 weeks, study length 105 weeks) 656 mg/kg/day; (mouse, strain B6C3F1, females, in feed, site: lung, lesion: alveolar/bronchiolar adenoma + alveolar/bronchiolar carcinoma, dosed 104 weeks, study length 105 weeks) 6660 mg/kg/day; (mouse, strain B6C3F1, males, in feed, site: any site (literature study), lesion: several types, types named in the paper, dosed 104 weeks, study length 105 weeks) 936 mg/kg/day (inactive); (mouse, strain B6C3F1, males, in feed, site: liver, lesion: hepatocellular adenoma + hepatocellular carcinoma + neoplastic nodule, dosed 104 weeks, study length 105 weeks) 1.23e+06 mg/kg/day; (rat, strain Fischer 344, females, in feed, site: urinary bladder, lesion: squamous-cell carcinoma + transitional-cell carcinoma + transitional-cell papilloma, dosed 104 weeks, study length 105 weeks) 106 mg/kg/day. Also, the TD50 (rat, strain Fischer 344, females, in feed, site: urinary bladder, lesion: transitional-cell carcinoma, dosed 104 weeks, study length 105 weeks) was 182 mg/kg/day; the TD50 (rat, strain Fischer 344, males, in feed, site: any site (literature study), lesion: several types, types named in the paper, dosed 104 weeks, study length 105 weeks) is 349 mg/kg/day (inactive); the TD50 (rat, strain Fischer 344, males, in feed, site: liver, lesion: hepatocellular adenoma + hepatocellular carcinoma + neoplastic nodule, dosed 104 weeks, study length 105 weeks) turned out to be 1130 mg/kg/day.
For `CNc1ccc(N(CCO)CCO)cc1[N+](=O)[O-]`, the TD50 came to 373 mg/kg/day (mouse, strain B6C3F1, females, in feed, site: any site (literature study), lesion: several types, types named in the paper, dosed 103 weeks, study length 104 weeks); 179 mg/kg/day (mouse, strain B6C3F1, females, in feed, site: liver, lesion: hepatocellular adenoma + hepatocellular carcinoma + neoplastic nodule, dosed 103 weeks, study length 104 weeks); 179 mg/kg/day (mouse, strain B6C3F1, females, in feed, site: liver, lesion: hepatocellular adenoma + hepatocellular carcinoma, dosed 103 weeks, study length 104 weeks); 165 mg/kg/day (mouse, strain B6C3F1, females, in feed, site: liver, lesion: hepatocellular adenoma, dosed 38 weeks, study length 100 weeks); 969 mg/kg/day (mouse, strain B6C3F1, females, in feed, site: liver, lesion: hepatocellular adenoma, dosed 64 weeks, study length 100 weeks); 697 mg/kg/day (mouse, strain B6C3F1, females, in feed, site: liver, lesion: hepatocellular adenoma, dosed 103 weeks, study length 104 weeks). The TD50 was 114 mg/kg/day (mouse, strain B6C3F1, females, in feed, site: liver, lesion: hepatocellular carcinoma, dosed 38 weeks, study length 100 weeks); 94 mg/kg/day (mouse, strain B6C3F1, females, in feed, site: liver, lesion: hepatocellular carcinoma, dosed 64 weeks, study length 100 weeks); 88.9 mg/kg/day and 148 mg/kg/day under setting [1]; 115 mg/kg/day and 163 mg/kg/day and 87.1 mg/kg/day (mouse, strain B6C3F1, females, in feed, site: liver, lesion: hepatocellular carcinoma, dosed 100 weeks, study length 100 weeks); 208 mg/kg/day (mouse, strain B6C3F1, females, in feed, site: liver, lesion: hepatocellular carcinoma, dosed 103 weeks, study length 104 weeks); 41.3 mg/kg/day (mouse, strain B6C3F1, females, in feed, site: liver, lesion: several types, types named in the paper, dosed 38 weeks, study length 100 weeks). For the same molecule, the TD50 runs as follows: (mouse, strain B6C3F1, females, in feed, site: liver, lesion: several types, types named in the paper, dosed 64 weeks, study length 100 weeks) 81.5 mg/kg/day; under setting [2], 85 mg/kg/day; under setting [3], 70.6 mg/kg/day and 51.4 mg/kg/day; (mouse, strain B6C3F1, males, in feed, site: any site (literature study), lesion: several types, types named in the paper, dosed 103 weeks, study length 104 weeks) 561 mg/kg/day; (mouse, strain B6C3F1, males, in feed, site: liver + thyroid gland, lesion: hepatocellular carcinoma + follicular-cell adenoma, dosed 103 weeks, study length 104 weeks) 369 mg/kg/day; (mouse, strain B6C3F1, males, in feed, site: liver, lesion: hepatocellular adenoma + hepatocellular carcinoma + neoplastic nodule, dosed 103 weeks, study length 104 weeks) 259 mg/kg/day. For the same molecule, the TD50 was 259 mg/kg/day (mouse, strain B6C3F1, males, in feed, site: liver, lesion: hepatocellular adenoma + hepatocellular carcinoma, dosed 103 weeks, study length 104 weeks); 286 mg/kg/day (mouse, strain B6C3F1, males, in feed, site: liver, lesion: hepatocellular adenoma, dosed 103 weeks, study length 104 weeks); 389 mg/kg/day (mouse, strain B6C3F1, males, in feed, site: liver, lesion: hepatocellular carcinoma, dosed 103 weeks, study length 104 weeks); 2230 mg/kg/day (mouse, strain B6C3F1, males, in feed, site: thyroid gland, lesion: follicular-cell adenoma, dosed 103 weeks, study length 104 weeks); 3310 mg/kg/day (rat, strain Fischer 344, females, in feed, site: liver, lesion: hepatocellular adenoma + hepatocellular carcinoma + neoplastic nodule, dosed 103 weeks, study length 104 weeks); 702 mg/kg/day (rat, strain Fischer 344, females, in feed, site: lung, lesion: alveolar/bronchiolar adenoma + alveolar/bronchiolar carcinoma, dosed 103 weeks, study length 104 weeks). Moreover, the TD50 is 1190 mg/kg/day (rat, strain Fischer 344, females, in feed, site: lung, lesion: alveolar/bronchiolar carcinoma, dosed 103 weeks, study length 104 weeks); 429 mg/kg/day (rat, strain Fischer 344, females, in feed, site: uterus, lesion: endometrial stromal polyp, dosed 103 weeks, study length 104 weeks); 938 mg/kg/day (rat, strain Fischer 344, males, in feed, site: liver, lesion: hepatocellular adenoma + hepatocellular carcinoma + neoplastic nodule, dosed 103 weeks, study length 104 weeks); 938 mg/kg/day (rat, strain Fischer 344, males, in feed, site: liver, lesion: hepatocellular carcinoma + neoplastic nodule, dosed 103 weeks, study length 104 weeks); 1660 mg/kg/day (rat, strain Fischer 344, males, in feed, site: liver, lesion: neoplastic nodule, dosed 103 weeks, study length 104 weeks). For the same molecule, the carcinogen call under setting [1] is “positive”, the carcinogen call under setting [2] was “positive” and the carcinogen call under setting [3] is “positive”.
For `CN(CCO)N=O`, the TD50 is, setting by setting: (rat, strain Fischer 344, males, by gavage, site: liver, lesion: hemangiosarcoma, dosed 69 weeks, study length 69 weeks) 8.97 mg/kg/day; (rat, strain Fischer 344, males, by gavage, site: liver, lesion: hepatocellular carcinoma, dosed 69 weeks, study length 69 weeks) 1.29 mg/kg/day; (rat, strain Fischer 344, males, by gavage, site: nasal cavity, lesion: squamous-cell carcinoma, dosed 69 weeks, study length 69 weeks) 2.06 mg/kg/day; (rat, strain Fischer 344, males, by gavage, site: nasal cavity, lesion: squamous-cell papilloma, dosed 69 weeks, study length 69 weeks) 8.97 mg/kg/day.
As to `Cc1cc(Cc2cc(C)cc(C(C)(C)C)c2O)c(O)c(C(C)(C)C)c1`, the carcinogen call runs as follows: (rat, strain Wistar, females, in feed, site: liver, lesion: one or several types, types not named, dosed 52 weeks, study length 52 weeks) “negative (inactive)”; (rat, strain Wistar, females, in feed, site: liver, lesion: one or several types, types not named, dosed 78 weeks, study length 78 weeks) “negative (inactive)”; (rat, strain Wistar, males, in feed, site: liver, lesion: hepatocellular adenoma, dosed 78 weeks, study length 78 weeks) “negative (inactive)”; (rat, strain Wistar, males, in feed, site: liver, lesion: one or several types, types not named, dosed 52 weeks, study length 52 weeks) “negative (inactive)”. Moreover, the TD50 is, setting by setting: (rat, strain Wistar, males, in feed, site: testis, lesion: interstitial-cell tumor, dosed 52 weeks, study length 52 weeks) 44.5 mg/kg/day (inactive); (rat, strain Wistar, males, in feed, site: testis, lesion: interstitial-cell tumor, dosed 78 weeks, study length 78 weeks) 36.6 mg/kg/day (inactive).
